Test system: F98 glioma
Experiment: Surviving assay in Fischer rats implanted with F98 glioma, intra carotid drug delivery with or without Gamma Knife irradiation
Assay type: in vivo
Settings: F98 glioma-bearing Fischer rats, 1 ml/rat intra-carotid 10 days after implantation; LipoGold with 15 Gy Gamma Knife 8 h later; FIG. 6

| Compound | life span / surviving time |
| --- | --- |
| N.N.[Cl][Pt][Cl] [cisplatin, cis-diammineplatinum(II) dichloride] | died before sham animals |
| O=C1[O][Pt]2([NH][C@@H]3CCCC[C@H]3[NH]2)[O]C1=O [oxaliplatin] | short life span, similar to sham animals |

Reference: US9302003B2, “Compositions comprising a radiosensitizer and an anti-cancer agent and methods of uses thereof” (priority 2009, dated 2016)
